Data reported in patent publication US4536400A, “Phosphonoformic acid esters” (priority 1977, dated 1985).

Experiment: Acid stability test in 0.1 N HCl (t.l.c. estimate of decomposition products)
Assay type: physicochemical
Conditions: incubated in 0.1 N HCl at 37° C. for 2 hours; 100 μg compound applied
Protocol: The acid stability was investigated by dissolving 5 mg of each compound in 1 ml of 0.1 N HCl in a test tube. For use as references 0.2 ml of each solution was withdrawn, immediately treated with 0.2 ml of a 10% aqueous solution of NaHCO3 and frozen. The remaining 0.8 ml of each solution was incubated at 37° C. for 2 hours. After incubation, 0.8 ml of a 10% aqueous solution of NaHCO3 was added to each solution and the solutions were frozen. The incubated compounds and the reference compounds were lyophilized to dryness and redissolved in distilled H2 O, 0.2 ml and 1.0 ml respectively, for each reference solution and incubated solution. The solutions were applied to silica gel (Merck PF254, 20×20 cm) and polyethylene imine (Macherey-Nagel PEI, 20×20 cm) thin layer plates. A total of 20 μl of the reference solutions (100 μg compound) and 25 μl of the incubated solutions ([…]) were applied. To each plate was also added, as references, solutions of phosphorous acid (H2 HPO3) (5 and 20 μg) and of trisodiumphosphonoformate (5 and 20 μg). (Decomposition of phosphonoformic acid at low pH produces phosphorous acid).
The silica gel plates were prepared in duplicate and eluted with a solution composed of methanol--10% aq ammonia--trichloroacetic acid--water (50--15--5--3, v/v) and the polyethylene imine plates were eluted with a 1M aq lithium chloride solution. […]

Structure (SMILES): O=C(O)P(=O)(O)O [EHB 776, trisodium phosphonoformate]
- Estimated formation of phosphorous acid: 20 µg
